Patent US12122804B2, “γ-aminobutyric acid modulator crystal form X, preparation method and application thereof” (SHENZHEN RENTAI […]., priority 2019, dated 2024)

Assays:
[1] = Light stability of the crystal form (XRPD comparison); type: physicochemical; conditions: 25° C., 4500 Lux, 5 days and 10 days, FIG. 13
Protocol: (§1) The crystal form X prepared in Example 5 is tested as follows.
(1) Light stability: the test sample is placed in an environment having a temperature of 25° C. and a light condition of 4500 Lux for 5 days and 10 days, respectively, to test the stability of the crystal form.

[2] = High-temperature stability of the crystal form (XRPD comparison); type: physicochemical; conditions: 60° C., 5 days and 10 days, FIG. 14
Protocol: as §1
(2) High-temperature stability: the test sample is placed at a temperature of 60° C. for 5 days and 10 days, respectively, to test the stability of the crystal form.

[3] = Accelerated stability of the crystal form (XRPD comparison); type: physicochemical; conditions: 75% RH, 40° C., 5 days and 10 days, FIG. 15
Protocol: as §1
(3) Accelerated stability: the test sample is placed in an environment having a humidity of 75% RH and a temperature of 40° C. for 5 days and 10 days, respectively, to test the stability of the crystal form.

[4] = High-humidity stability of the crystal form (XRPD comparison); type: physicochemical; conditions: 92.5% RH, 25° C., 5 days and 10 days, FIG. 16
Protocol: as §1
(4) High-humidity stability: the test sample is placed in an environment having a humidity of 92.5% RH and a temperature of 25° C. for 5 days and 10 days, respectively, to test the stability of the crystal form.

[5] = Comparison of crystal form X with crystal form K (XRPD, FIG. 17; stability); type: physicochemical
[6] = assessment of data of WO2018039378A1: crystal transformation, XRPD at different temperatures; cited from earlier work

Row | Compound | Light stability of the crystal form [1] | High-temperature stability of the crystal form [2] | Accelerated stability of the crystal form [3] | High-humidity stability of the crystal form [4] | Stability relative to crystal form K [5] | Crystal form stability (suitability as medicinal crystal form) [6]
1 | C[C@@]1(O)CC[C@H]2[C@H](CC[C@@H]3[C@@H]2CC[C@]2(C)[C@@H](C(=O)Cn4cc(C#N)cn4)CC[C@@H]32)C1 [crystal form X, 3α-hydroxy-3β-methyl-21-(4-cyano-1H-pyrazol-1′-yl)-19-nor-5β-pregnan-20-one] | good light stability | good high-temperature stability | good accelerated stability | good high-humidity stability | better stability than the crystal form K | –
2 | C[C@@]1(O)CC[C@H]2[C@H](CC[C@@H]3[C@@H]2CC[C@]2(C)[C@@H](C(=O)Cn4cc(C#N)cn4)CC[C@@H]32)C1 [crystal form A, 3α-hydroxy-3β-methyl-21-(4-cyano-1H-pyrazol-1′-yl)-19-nor-5β-pregnan-20-one] | – | – | – | – | – | unstable
